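Assay format: 96-well plates, 48-hour exposure. Here, GI50 denotes the concentration required for 50% inhibition of growth.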 Activity calls are given as the source filed them. No stated cut-off is given here; in the data, active = GI50 up to about 1.1 µM and inactive = higher.
Tests used:
Assay in all cases: NCI-60 cell line screen, 48 h
[1] = system: PC-3
[2] = system: SK-OV-3
[3] = system: NCI/ADR-RES
[4] = system: CAKI-1
[5] = system: MCF7
[6] = system: OVCAR-3
[7] = system: HCT-116
[8] = system: DU-145
[9] = system: NCI-H23
[10] = system: DMS-273
[11] = system: SF-268
[12] = system: NCI-H460
[13] = system: DLD-1
[14] = system: UACC-62
[15] = system: ACHN
[16] = system: EKVX
[17] = system: XF498
[18] = system: DMS-114
[19] = system: SF-295
[20] = system: RXF 393
[21] = system: BT-549
[22] = system: IGROV-1
[23] = system: SW-620
[24] = system: HOP-18
[25] = system: Malme-3M
[26] = system: NCI-H522
[27] = system: MOLT-4
[28] = system: RPMI-8226
[29] = system: OVCAR-5
[30] = system: SK-MEL-5
[31] = system: UACC-257
[32] = system: MDA-N
[33] = system: M14
[34] = system: SF-539
[35] = system: NCI-H226
[36] = system: MDA-MB-435
[37] = system: UO-31
[38] = system: M19-MEL
[39] = system: HOP-92
[40] = system: SK-MEL-2
[41] = system: HOP-62
[42] = system: HCC 2998
[43] = system: 786-0
[44] = system: CCRF-CEM
[45] = system: A498
[46] = system: SNB-19
[47] = system: COLO 205
[48] = system: SN12C
[49] = system: OVCAR-4
[50] = system: Hs-578T
[51] = system: TK-10
[52] = system: LOX IMVI
[53] = system: HCT-15
[54] = system: SNB-75
[55] = system: U-251
[56] = system: KM-20L2
[57] = system: OVCAR-8
[58] = system: HL-60
[59] = system: SK-MEL-28
[60] = system: K562
[61] = system: KM12
[62] = system: MDA-MB-231
[63] = system: A549
[64] = system: SR
[65] = system: HT-29
[66] = system: SNB-78
[67] = system: LXFL 529

C#CCNC(=O)NC(CCCCNC(=O)OCc1ccccc1)C(=O)OCc1ccccc1 (configuration not stated)
GI50 [1]: > 67 µM (inactive)
GI50 [2]: > 100 µM (inactive)
GI50 [3]: > 100 µM (inactive)
GI50 [4]: > 74 µM (inactive)
GI50 [5]: > 100 µM (inactive)
GI50 [6]: 62.2 µM (inactive)
GI50 [7]: > 100 µM (inactive)
GI50 [8]: > 100 µM (inactive)
GI50 [9]: 76.2 µM (inactive)
GI50 [10]: > 100 µM (inactive)
GI50 [11]: 67.6 µM (inactive)
GI50 [12]: 93.5 µM (inactive)
GI50 [13]: > 100 µM (inactive)
GI50 [14]: 12.7 µM (inactive)
GI50 [15]: 40.1 µM (inactive)
GI50 [16]: > 100 µM (inactive)
GI50 [17]: 19.3 µM (inactive)
GI50 [18]: 40.7 µM (inactive)
GI50 [19]: > 61 µM (inactive)
GI50 [20]: 10.8 µM (inactive)
GI50 [21]: > 100 µM (inactive)
GI50 [22]: > 100 µM (inactive)
GI50 [23]: > 100 µM (inactive)
GI50 [24]: 23 µM (inactive)
GI50 [25]: 24.2 µM (inactive)
GI50 [26]: 6.64 µM (inactive)
GI50 [27]: 31 µM (inactive)
GI50 [28]: 26.7 µM (inactive)
GI50 [29]: > 100 µM (inactive)
GI50 [30]: 18.3 µM (inactive)
GI50 [31]: 19.7 µM (inactive)
GI50 [32]: 32.9 µM (inactive)
GI50 [33]: 22.7 µM (inactive)
GI50 [34]: 38.9 µM (inactive)
GI50 [35]: 41.6 µM (inactive)
GI50 [36]: 22.8 µM (inactive)
GI50 [37]: 21.6 µM (inactive)
GI50 [38]: 11.3 µM (inactive)
GI50 [39]: 18.7 µM (inactive)
GI50 [40]: 16.6 µM (inactive)
GI50 [41]: > 100 µM (inactive)
GI50 [42]: 31.5 µM (inactive)
GI50 [43]: > 95.7 µM (inactive)
GI50 [44]: 49.8 µM (inactive)
GI50 [45]: 21.9 µM (inactive)
GI50 [46]: > 100 µM (inactive)
GI50 [47]: 21.7 µM (inactive)
GI50 [48]: 37.4 µM (inactive)
GI50 [49]: > 100 µM (inactive)
GI50 [50]: > 100 µM (inactive)
GI50 [51]: 37.6 µM (inactive)
GI50 [52]: 33.7 µM (inactive)
GI50 [53]: > 100 µM
GI50 [54]: 16.2 µM (inactive)
GI50 [55]: > 72.1 µM (inactive)
GI50 [56]: > 100 µM (inactive)
GI50 [57]: 95.1 µM (inactive)
GI50 [58]: 16 µM (inactive)
GI50 [59]: 17.7 µM (inactive)
GI50 [60]: 53.6 µM (inactive)
GI50 [61]: 99.8 µM (inactive)
GI50 [62]: > 39.2 µM (inactive)
GI50 [63]: > 77.6 µM (inactive)
GI50 [64]: 34.8 µM (inactive)
GI50 [65]: > 56.2 µM (inactive)
GI50 [66]: 23.9 µM (inactive)
GI50 [67]: > 100 µM (inactive)

O=S1(=O)C[C@@H](O)[C@H](O)CS1
GI50 [2]: > 100 µM (inactive)
GI50 [4]: > 100 µM (inactive)
GI50 [6]: > 100 µM (inactive)
GI50 [7]: > 100 µM (inactive)
GI50 [9]: > 100 µM (inactive)
GI50 [10]: > 100 µM (inactive)
GI50 [11]: > 100 µM (inactive)
GI50 [12]: > 100 µM (inactive)
GI50 [13]: > 100 µM (inactive)
GI50 [14]: > 100 µM (inactive)
GI50 [15]: > 100 µM (inactive)
GI50 [16]: > 100 µM (inactive)
GI50 [17]: > 100 µM (inactive)
GI50 [18]: > 100 µM (inactive)
GI50 [19]: > 100 µM (inactive)
GI50 [20]: > 100 µM (inactive)
GI50 [22]: > 100 µM (inactive)
GI50 [23]: > 100 µM (inactive)
GI50 [24]: > 100 µM (inactive)
GI50 [25]: > 100 µM (inactive)
GI50 [26]: > 100 µM (inactive)
GI50 [27]: > 100 µM (inactive)
GI50 [28]: > 100 µM (inactive)
GI50 [29]: > 100 µM (inactive)
GI50 [30]: > 100 µM (inactive)
GI50 [31]: > 100 µM (inactive)
GI50 [33]: > 100 µM (inactive)
GI50 [34]: > 100 µM (inactive)
GI50 [35]: > 100 µM (inactive)
GI50 [37]: > 100 µM (inactive)
GI50 [38]: > 100 µM (inactive)
GI50 [39]: > 100 µM (inactive)
GI50 [41]: > 100 µM (inactive)
GI50 [42]: > 100 µM (inactive)
GI50 [43]: > 100 µM (inactive)
GI50 [45]: > 100 µM (inactive)
GI50 [46]: > 100 µM (inactive)
GI50 [47]: > 100 µM (inactive)
GI50 [48]: > 100 µM (inactive)
GI50 [49]: > 100 µM (inactive)
GI50 [51]: > 100 µM (inactive)
GI50 [52]: > 100 µM (inactive)
GI50 [54]: > 100 µM (inactive)
GI50 [55]: > 100 µM (inactive)
GI50 [56]: > 100 µM (inactive)
GI50 [57]: > 100 µM (inactive)
GI50 [58]: > 100 µM (inactive)
GI50 [59]: > 100 µM (inactive)
GI50 [60]: > 100 µM (inactive)
GI50 [61]: > 100 µM (inactive)
GI50 [63]: > 100 µM (inactive)
GI50 [64]: > 100 µM (inactive)
GI50 [65]: > 100 µM (inactive)
GI50 [66]: > 100 µM (inactive)
GI50 [67]: > 100 µM (inactive)

From ChEMBL document CHEMBL1201862, “PubChem BioAssay data set” (2004)
